The target of experiment [1] is T1, Pseudomonas aeruginosa LpxC enzyme (Pseudomonas aeruginosa, UniProt P47205).
T1 construct: made in house; host or cells: E. coli
T1 sequence (P47205 1-303): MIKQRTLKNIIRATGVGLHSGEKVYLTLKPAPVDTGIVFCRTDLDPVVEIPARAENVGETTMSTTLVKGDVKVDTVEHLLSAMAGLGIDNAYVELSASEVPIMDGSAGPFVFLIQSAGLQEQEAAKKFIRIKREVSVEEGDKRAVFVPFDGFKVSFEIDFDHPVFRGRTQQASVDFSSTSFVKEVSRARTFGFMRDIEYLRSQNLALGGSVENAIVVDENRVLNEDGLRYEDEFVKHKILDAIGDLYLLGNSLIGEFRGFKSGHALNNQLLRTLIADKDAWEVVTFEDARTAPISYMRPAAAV
Kind of experiment: IC50 assay, LpxC enzyme from P. aeruginosa (PA LpxC enzyme IC50). The format is biochemical. As to conditions: LpxC enzyme 0.1 nM, 25° C., 1 hour. Put shortly:
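IC50 values came from percent conversion, referenced to a no-enzyme control. Conversion was read by RapidFire HTMS mass spectrometry after HCl quench of the 1 h enzyme reaction.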

Experiment [2] has as its system Acinetobacter baumannii/haemolyticus, multidrug-resistant clinical isolate (AB-3167). Kind of experiment: MIC determination, AB-3167. As to conditions: Table 3, lower of duplicate values. It counts as cell-based. Put shortly:
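MIC read visually after overnight growth across 2-fold concentration steps in the CLSI dilution method against the multidrug-resistant clinical isolate. Duplicate determinations, lower value reported when within 2-fold, otherwise repeated; every run checked with control organisms and reference drugs.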

Experiment [3] relates to Escherichia coli EC-1: VOGEL, mouse virulent. Kind of experiment: MIC determination, EC-1. The format is cell-based. The following applies: Escherichia coli, read-out: EC-1 (MIC), Table 3, lower of duplicate values. Put shortly: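 Duplicate runs differing by more than 2-fold were repeated, and otherwise the lower MIC was kept. The test organism was E. coli EC-1 (VOGEL, mouse virulent), incubated overnight across 2-fold compound dilutions following CLSI guidelines. The MIC was read visually as the lowest concentration inhibiting growth relative to drug-free control.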

The subject of another experiment is PA:UC12120. The experiment is described as follows: MIC determination, PA:UC12120 (Table 3). It counts as cell-based, Pseudomonas aeruginosa. The following applies: Pseudomonas aeruginosa, UC12120, Table 3, lower of duplicate values. In outline:
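CLSI broth dilution MIC with 2-fold concentration steps, overnight incubation; MIC is the lowest concentration visibly inhibiting growth versus drug-free control. Run in duplicate, lower value reported when within 2-fold; control organisms and reference compounds required within defined ranges.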

≈ marks a conversion by molar mass, not a printed value. Read-outs that look alike come from different tables or passages of the source.

For the compound `CN(C)C(=O)c1ccc(-c2cc(=O)n(CCC(C)(C(=O)NO)S(C)(=O)=O)cc2F)cc1` (centres unmarked) [Example 68, 4-{5-fluoro-1-[4-(hydroxyamino)-3-methyl-3-(methylsulfonyl)-4-oxobutyl]-2-oxo-1,2-dihydropyridin-4-yl}-N,N-dimethylbenzamide], the IC50 in experiment [1] (Table 3, read-out: PA:IC50) stood at 34.3 nM. In addition, the MIC (in experiment [2]; in experiment [3]; against PA:UC12120) was more than 64 µg/mL in each case.
Consider `CC(CCn1cc(F)c(-c2cnc3ccoc3c2)cc1=O)(C(=O)NO)S(C)(=O)=O` (centres unmarked) [Example 72, 4-(5-fluoro-4-furo[3,2-b]pyridin-6-yl-2-oxopyridin-1(2H)-yl)-N-hydroxy-2-methyl-2-(methylsulfonyl)butanamide], for which the IC50 in experiment [1] (Table 3, read-out: PA:IC50) was found to be 34.8 nM. Besides, the MIC was more than 64 µg/mL in experiment [2], 64 µg/mL (≈ 151 µM) in experiment [3] and 32 µg/mL (≈ 75.6 µM) against PA:UC12120.
On to `COc1cccc(-c2cc(=O)n(CCC(C)(C(=O)NO)S(C)(=O)=O)cc2F)c1` (centres unmarked) [Example 100, 4-[5-fluoro-4-(3-methoxyphenyl)-2-oxopyridin-1(2H)-yl]-N-hydroxy-2-methyl-2-(methylsulfonyl)butanamide], for which, in experiment [1] (Table 3, read-out: PA:IC50), the IC50 came out at 2.5 nM. Further, the MIC in experiment [2] is more than 64 µg/mL; in experiment [3] it was 4 µg/mL (≈ 9.7 µM); in the experiment on PA:UC12120, 2 µg/mL (≈ 4.85 µM).
Turning to `CCOc1ccc(-c2cc(=O)n(CCC(C)(C(=O)NO)S(C)(=O)=O)cc2F)cc1` (centres unmarked) [Example 76, 4-[4-(4-ethoxyphenyl)-5-fluoro-2-oxopyridin-1(2H)-yl]-N-hydroxy-2-methyl-2-(methylsulfonyl)butanamide], the IC50 in experiment [1] (Table 3, read-out: PA:IC50) was 1.1 nM. The MIC in experiment [2] was more than 64 µg/mL; in experiment [3], 0.25 µg/mL (≈ 0.586 µM); with PA:UC12120, 0.5 µg/mL (≈ 1.17 µM).
Taken in the same sequence, the figures for `COc1cc(-c2cc(=O)n(CCC(C)(C(=O)NO)S(C)(=O)=O)cc2F)ccc1C#N` (centres unmarked) [Example 74, 4-[4-(4-cyano-3-methoxyphenyl)-5-fluoro-2-oxopyridin-1(2H)-yl]-N-hydroxy-2-methyl-2-(methylsulfonyl)butanamide] were 5.9 nM, more than 64 µg/mL, 64 µg/mL (≈ 146 µM) and 16 µg/mL (≈ 36.6 µM).
Taken in the same sequence, the figures for `CC(CCn1cc(F)c(-c2ccc(Cl)cc2F)cc1=O)(C(=O)NO)S(C)(=O)=O` (centres unmarked) [Example 66, 4-[4-(4-chloro-2-fluorophenyl)-5-fluoro-2-oxopyridin-1(2H)-yl]-N-hydroxy-2-methyl-2-(methylsulfonyl)butanamide] were 0.8 nM, 64 µg/mL (≈ 147 µM), 0.5 µg/mL (≈ 1.15 µM) and 0.5 µg/mL (≈ 1.15 µM).
Turning to `CC(CCn1cc(F)c(-c2cccnc2)cc1=O)(C(=O)NO)S(C)(=O)=O` (centres unmarked) [Example 65, 4-(5′-fluoro-2′-oxo-3,4′-bipyridin-1′(2′H)-yl)-N-hydroxy-2-methyl-2-(methylsulfonyl)butanamide], in experiment [1] (Table 3, read-out: PA:IC50), the IC50 is 82.3 nM. For the same compound, the MIC in experiment [2] was more than 64 µg/mL; in experiment [3], more than 64 µg/mL; in the experiment with PA:UC12120, 32 µg/mL (≈ 83.5 µM).
Regarding `CC(CCn1cc(F)c(-c2ccccc2)cc1=O)(C(=O)NO)S(C)(=O)=O` (centres unmarked) [Example 78, 4-(5-fluoro-2-oxo-4-phenylpyridin-1(2H)-yl)-N-hydroxy-2-methyl-2-(methylsulfonyl)butanamide], in experiment [1] (PA:IC50, Table 3), the IC50 stood at 2.8 nM. Further, the minimal inhibitory concentration (MIC) is more than 64 µg/mL in experiment [2], 4 µg/mL (≈ 10.5 µM) in experiment [3] and 1 µg/mL (≈ 2.61 µM) with PA:UC12120.
`CN(C)c1ncc(-c2cc(=O)n(CCC(C)(C(=O)NO)S(C)(=O)=O)cc2F)cn1` (centres unmarked) [Example 115, 4-{4-[2-(dimethylamino)pyrimidin-5-yl]-5-fluoro-2-oxopyridin-1(2H)-yl}-N-hydroxy-2-methyl-2-(methylsulfonyl)butanamide]: in experiment [1] (Table 3, read-out: PA:IC50), the IC50 was determined as 74.1 nM. For the same compound, the results for the MIC (in experiment [2]; in experiment [3]; with PA:UC12120) were more than 64 µg/mL, 32 µg/mL (≈ 74.9 µM) and 32 µg/mL (≈ 74.9 µM), respectively.
As for `COCc1ccccc1-c1cc(=O)n(CCC(C)(C(=O)NO)S(C)(=O)=O)cc1F` (centres unmarked) [Example 110, 4-{5-fluoro-4-[2-(methoxymethyl)phenyl]-2-oxopyridin-1(2H)-yl}-N-hydroxy-2-methyl-2-(methylsulfonyl)butanamide], the IC50 in experiment [1] (Table 3, read-out: PA:IC50) was more than 100 nM. Moreover, the MIC (in experiment [2]; in experiment [3]; against PA:UC12120) was more than 64 µg/mL throughout.
For `COCc1cccc(-c2cc(=O)n(CCC(C)(C(=O)NO)S(C)(=O)=O)cc2F)c1` (centres unmarked) [Example 93, 4-{5-fluoro-4-[3-(methoxymethyl)phenyl]-2-oxopyridin-1(2H)-yl}-N-hydroxy-2-methyl-2-(methylsulfonyl)butanamide], the IC50 in experiment [1] (Table 3, read-out: PA:IC50) amounted to 14.2 nM. Also, the MIC was more than 64 µg/mL in experiment [2], 32 µg/mL (≈ 75 µM) in experiment [3] and 8 µg/mL (≈ 18.8 µM) in the experiment on PA:UC12120.
Taken in the same sequence, the figures for `CC(CCn1cc(F)c(-c2ccc(O)nc2)cc1=O)(C(=O)NO)S(C)(=O)=O` (centres unmarked) [Example 80, 4-(5′-fluoro-6-hydroxy-2′-oxo-3,4′-bipyridin-1′(2′H)-yl)-N-hydroxy-2-methyl-2-(methylsulfonyl)butanamide] were more than 100 nM, more than 64 µg/mL, more than 64 µg/mL and more than 64 µg/mL.
Taken in the same sequence, the figures for `COC(C)c1ccc(-c2cc(=O)n(CCC(C)(C(=O)NO)S(C)(=O)=O)cc2F)cc1` (centres unmarked) [Example 88, 4-{5-fluoro-4-[4-(1-methoxyethyl)phenyl]-2-oxopyridin-1(2H)-yl}-N-hydroxy-2-methyl-2-(methylsulfonyl)butanamide] were 7.6 nM, more than 64 µg/mL, 16 µg/mL (≈ 36.3 µM) and 4 µg/mL (≈ 9.08 µM).
Taken in the same sequence, the figures for `CCOc1ccc(-c2cc(=O)n(CCC(C)(C(=O)NO)S(C)(=O)=O)cc2F)cn1` (centres unmarked) [Example 99, 4-(6-ethoxy-5′-fluoro-2′-oxo-3,4′-bipyridin-1′(2′H)-yl)-N-hydroxy-2-methyl-2-(methylsulfonyl)butanamide] were 2.5 nM, more than 64 µg/mL, 2 µg/mL (≈ 4.68 µM) and 2 µg/mL (≈ 4.68 µM).
Turning to `COc1ccc(-c2cc(=O)n(CCC(C)(C(=O)NO)S(C)(=O)=O)cc2F)cn1` (centres unmarked) [Example 89, 4-(5′-fluoro-6-methoxy-2′-oxo-3,4′-bipyridin-1′(2′H)-yl)-N-hydroxy-2-methyl-2-(methylsulfonyl)butanamide], the concentration for half-maximal inhibition (IC50) in experiment [1] (Table 3, read-out: PA:IC50) was 3.1 nM. The MIC in experiment [2] was more than 64 µg/mL; in experiment [3], 8 µg/mL (≈ 19.4 µM); against PA:UC12120, 2 µg/mL (≈ 4.84 µM).
Taken in the same sequence, the figures for `CC(CCn1cc(F)c(-c2ccc3c(c2)CNC3=O)cc1=O)(C(=O)NO)S(C)(=O)=O` (centres unmarked) [Example 108, 4-[5-fluoro-2-oxo-4-(1-oxo-2,3-dihydro-1H-isoindol-5-yl)pyridin-1(2H)-yl]-N-hydroxy-2-methyl-2-(methylsulfonyl)butanamide] were 7.2 nM, more than 64 µg/mL, more than 64 µg/mL and more than 64 µg/mL.
Regarding `Cn1cnc2cc(-c3cc(=O)n(CCC(C)(C(=O)NO)S(C)(=O)=O)cc3F)cnc21` (centres unmarked) [Example 71, 4-[5-fluoro-4-(3-methyl-3H-imidazo[4,5-b]pyridin-6-yl)-2-oxopyridin-1(2H)-yl]-N-hydroxy-2-methyl-2-(methylsulfonyl)butanamide], in experiment [1] (Table 3, read-out: PA:IC50), the IC50 is more than 100 nM. For the same compound, the minimal inhibitory concentration (MIC) (in experiment [2]; in experiment [3]; against PA:UC12120) was more than 64 µg/mL each time.
Turning to `Cc1ncc(-c2cc(=O)n(CCC(C)(C(=O)NO)S(C)(=O)=O)cc2F)cc1F` (centres unmarked) [Example 83, 4-(5,5′-difluoro-6-methyl-2′-oxo-3,4′-bipyridin-1′(2′H)-yl)-N-hydroxy-2-methyl-2-(methylsulfonyl)butanamide], the IC50 in experiment [1] (Table 3, read-out: PA:IC50) stood at 27.5 nM. For the same compound, the MIC in experiment [2] is more than 64 µg/mL; in experiment [3], more than 64 µg/mL; against PA:UC12120 it was 32 µg/mL (≈ 77 µM).
Turning to `CC(CCn1cc(F)c(-c2ccccc2F)cc1=O)(C(=O)NO)S(C)(=O)=O` (centres unmarked) [Example 103, 4-[5-fluoro-4-(2-fluorophenyl)-2-oxopyridin-1(2H)-yl]-N-hydroxy-2-methyl-2-(methylsulfonyl)butanamide], the IC50 in experiment [1] (Table 3, read-out: PA:IC50) is 1.4 nM. Besides, the values for the MIC (in experiment [2]; in experiment [3]; against PA:UC12120) were more than 64 µg/mL, 4 µg/mL (≈ 9.99 µM) and 0.5 µg/mL (≈ 1.25 µM), respectively.
In the same order, the values of `CC(CCn1cc(F)c(-c2ccc(O)cc2)cc1=O)(C(=O)NO)S(C)(=O)=O` (centres unmarked) [Example 53, 4-[5-fluoro-4-(4-hydroxyphenyl)-2-oxopyridin-1(2H)-yl]-N-hydroxy-2-methyl-2-(methylsulfonyl)butanamide] are 4.2 nM, more than 64 µg/mL, more than 64 µg/mL and 64 µg/mL (≈ 161 µM).

The values are drawn from US8624034B2, “Fluoro-pyridinone derivatives useful as antibacterial agents” (Pfizer Inc., priority 2011, dated 2014).
